Data taken from a flash point compilation (Sun et al. 2020).

Compared with `CN(C)Cc1cc(CN(C)C)c(O)c(CN(C)C)c1` [2,4,6-tris[(dimethylamino)methyl]phenol], `CCc1cccc(CC)c1CC` [1,2,3-triethylbenzene] is lower in flash point: 124.00 °C for the first, 83.00 °C for the second.

Going from `COc1nc(C)nc(NC(=O)NS(=O)(=O)c2ccccc2CCC(F)(F)F)n1` to `COC(=O)c1ccccc1` [methyl benzoate], the flash point falls from 100.00 °C to 83.00 °C.

Compared with `Oc1ccc(Br)cc1Br` [2,4-dibromophenol], `Cc1cc(O)ccc1Cl` [4-chloro-3-methylphenol] is lower in flash point: 113.00 °C for the first, 110.00 °C for the second.

First: CCCCCOC(=O)CCC [pentyl butanoate]
Second: CCCC(=O)OCC [ethyl butanoate]
The flash point of the first is higher: 57.00 °C for the first, 24.00 °C for the second.

First: c1ccc2cc3ccccc3cc2c1 [anthracene]
Second: Oc1ccc2ccccc2c1 [naphthalen-2-ol]
The flash point of the first is lower: 121.00 °C for the first, 153.00 °C for the second.

Going from `Cc1ccc(C(C)(C)C)cc1` [1-tert-butyl-4-methylbenzene] to `Cc1ccc(C(C)C)cc1` [1-methyl-4-propan-2-ylbenzene], the flash point falls from 58.00 °C to 47.00 °C.

First: CN(C)C1CCCCC1 [N,N-dimethylcyclohexanamine]
Second: OC1CCCCC1 [cyclohexanol]
The flash point of the first is lower: 42.00 °C for the first, 68.00 °C for the second.

First: CCOc1ccc2c(c1)C(C)=CC(C)(C)N2 [6-ethoxy-2,2,4-trimethyl-1H-quinoline]
Second: Cc1cccc(C)c1 [1,3-xylene]
The flash point of the first is higher: 107.00 °C for the first, 29.00 °C for the second.

Compared with `C1OCOCO1` [1,3,5-trioxane], `C1COCO1` [1,3-dioxolane] is lower in flash point: 45.00 °C for the first, 2.00 °C for the second.

First: CCCCCCCCS [octane-1-thiol]
Second: CCCCCS [pentane-1-thiol]
The flash point of the first is higher: 46.00 °C for the first, 18.00 °C for the second.

First: c1cc(OCC2CO2)cc(OCC2CO2)c1 (configuration not stated) [2-[[3-(oxiran-2-ylmethoxy)phenoxy]methyl]oxirane]
Second: Nc1cccc(Cl)c1 [3-chloroaniline]
The flash point of the first is higher: 177.00 °C for the first, 124.00 °C for the second.

Going from `OCC(Cl)CCl` (configuration not stated) [2,3-dichloropropan-1-ol] to `C=C(Cl)CCl` [2,3-dichloroprop-1-ene], the flash point falls from 91.00 °C to 10.00 °C.

Compared with `CN(C)N` [1,1-dimethylhydrazine], `CSSC` [(methyldisulfanyl)methane] is higher in flash point: -15.00 °C for the first, 24.00 °C for the second.

Going from `C=CC(=O)OCCC#N` [2-cyanoethyl prop-2-enoate] to `C=CC(=O)OCCO` [2-hydroxyethyl prop-2-enoate], the flash point falls from 124.00 °C to 101.00 °C.

Going from `C=CCOC(C)=O` [prop-2-enyl acetate] to `C=CC(=O)OCC(CC)CC` [2-ethylbutyl prop-2-enoate], the flash point rises from 22.00 °C to 52.00 °C.

Compared with `O=C(Cl)C(Cl)Cl` [2,2-dichloroacetyl chloride], `O=C(O)CCl` [2-chloroacetic acid] is higher in flash point: 66.00 °C for the first, 150.00 °C for the second.

First: c1ccc(-c2ccccc2)cc1 [1,1'-biphenyl]
Second: O=C(OCc1ccccc1)c1ccccc1O [benzyl 2-hydroxybenzoate]
The flash point of the first is lower: 113.00 °C for the first, 180.00 °C for the second.

Compared with `CCCCCCCCc1ccc(O)cc1` [4-octylphenol], `CCCCCCCCCCCc1ccccc1` [undecylbenzene] is higher in flash point: 113.00 °C for the first, 141.00 °C for the second.

First: CCCCCCCCCCCC(=O)[O][Sn]([CH2]CCC)([CH2]CCC)[O]C(=O)CCCCCCCCCCC [[dibutyl(dodecanoyloxy)stannyl] dodecanoate]
Second: CCCCCCCCCCCCCCCCN [hexadecan-1-amine]
The flash point of the first is higher: 235.00 °C for the first, 141.00 °C for the second.

First: OCCN1CC1 [2-(aziridin-1-yl)ethanol]
Second: NCCCO [3-aminopropan-1-ol]
The flash point of the first is lower: 67.00 °C for the first, 79.00 °C for the second.

Going from `CC(C)C1=CC2=CC[C@@H]3[C@](C)(CCC[C@@]3(C)C(=O)O)[C@H]2CC1` to `OOC1(OOC2(O)CCCCC2)CCCCC1` [1-(1-hydroperoxycyclohexyl)peroxycyclohexan-1-ol], the flash point falls from 187.00 °C to 157.00 °C.

Compared with `C1=CC2C=CC1C2` [bicyclo[2.2.1]hepta-2,5-diene], `O=C(Cl)c1ccccc1` [benzoyl chloride] is higher in flash point: -21.00 °C for the first, 72.00 °C for the second.

Compared with `CCOCCOCCOCC` [1-ethoxy-2-(2-ethoxyethoxy)ethane], `CCCCOCCOCCCC` [1-(2-butoxyethoxy)butane] is higher in flash point: 54.00 °C for the first, 85.00 °C for the second.

Going from `CC(N)c1ccccc1` (configuration not stated) [1-phenylethanamine] to `CNC(C)Cc1ccccc1` (configuration not stated) [N-methyl-1-phenylpropan-2-amine], the flash point falls from 79.00 °C to 9.00 °C.

First: CCCC(C)Br (configuration not stated) [2-bromopentane]
Second: CCC(C)S (configuration not stated) [butane-2-thiol]
The flash point of the first is higher: 21.00 °C for the first, -23.00 °C for the second.

Compared with `Cc1c2ccccc2c(C)c2c1ccc1ccccc12` [7,12-dimethylbenzo[a]anthracene], `Nc1cccc2c(N)cccc12` [naphthalene-1,5-diamine] is higher in flash point: 86.00 °C for the first, 226.00 °C for the second.

Compared with `CCCCCN(CCCCC)CCCCC` [N,N-dipentylpentan-1-amine], `CCCN(CCC)CCC` [N,N-dipropylpropan-1-amine] is lower in flash point: 102.00 °C for the first, 37.00 °C for the second.

Going from `O=[N+]([O-])c1ccccc1` [nitrobenzene] to `O=[N+]([O-])c1cccc(I)c1` [1-iodo-3-nitrobenzene], the flash point falls from 88.00 °C to 72.00 °C.

First: Cc1cc(C)nc(C)c1 [2,4,6-trimethylpyridine]
Second: Cc1ccc(N)cc1Cl [3-chloro-4-methylaniline]
The flash point of the first is lower: 58.00 °C for the first, 100.00 °C for the second.

Compared with `C=CCSSCCC` [1-(prop-2-enyldisulfanyl)propane], `C=COCCCC` [1-ethenoxybutane] is lower in flash point: 56.00 °C for the first, -9.00 °C for the second.

Compared with `CCC(C)(C)OC` [2-methoxy-2-methylbutane], `COC(C)(C)C` [2-methoxy-2-methylpropane] is lower in flash point: -7.00 °C for the first, -26.00 °C for the second.

Going from `C=C` [ethene] to `C=CCCCCC=C` [octa-1,7-diene], the flash point rises from -136.00 °C to 9.00 °C.

Compared with `COCCOCCOCCOCCO` [2-[2-[2-(2-methoxyethoxy)ethoxy]ethoxy]ethanol], `CCC(CC)C(=O)OCCOCCOCCOC(=O)C(CC)CC` is higher in flash point: 161.00 °C for the first, 196.00 °C for the second.

First: O=C(OC1CCCCC1)c1ccccc1C(=O)OC1CCCCC1 [dicyclohexyl benzene-1,2-dicarboxylate]
Second: CCCCCCCCCCOC(=O)c1ccccc1C(=O)OCCCCCCCC [2-O-decyl 1-O-octyl benzene-1,2-dicarboxylate]
The flash point of the first is lower: 207.00 °C for the first, 235.00 °C for the second.

Going from `CC(C)CC(C)O` (configuration not stated) [4-methylpentan-2-ol] to `CC(=O)CC(C)C` [4-methylpentan-2-one], the flash point falls from 41.00 °C to 23.00 °C.

Compared with `O=C(Cl)c1ccccc1F` [2-fluorobenzoyl chloride], `Cl[Si](Cl)(Cl)c1ccccc1` [trichloro(phenyl)silane] is higher in flash point: 82.00 °C for the first, 91.00 °C for the second.

Going from `CC1CN1` (configuration not stated) [2-methylaziridine] to `CCCCNC1CCCCC1` [N-butylcyclohexanamine], the flash point rises from -4.00 °C to 93.00 °C.

Compared with `C=CCc1ccc2c(c1)OCO2` [5-prop-2-enyl-1,3-benzodioxole], `O=[N+]([O-])c1cccc(Cl)c1Cl` [1,2-dichloro-3-nitrobenzene] is higher in flash point: 98.00 °C for the first, 124.00 °C for the second.

Compared with `SCc1ccccc1` [phenylmethanethiol], `CCNc1ccccc1` [N-ethylaniline] is higher in flash point: 70.00 °C for the first, 85.00 °C for the second.

First: CC(Oc1ccc(Cl)cc1Cl)C(=O)O (configuration not stated) [2-(2,4-dichlorophenoxy)propanoic acid]
Second: O=C(O)c1cccnc1 [pyridine-3-carboxylic acid]
The flash point of the first is higher: 204.00 °C for the first, 193.00 °C for the second.

Compared with `CCCCN(CC)C(=O)SCCC` [S-propyl N-butyl-N-ethylcarbamothioate], `C=CC(=O)OCCCCCC` [hexyl prop-2-enoate] is higher in flash point: 51.00 °C for the first, 68.00 °C for the second.

First: OC[C@@H](O)[C@@H](O)[C@H](O)[C@@H](O)CO [(2R,3R,4R,5S)-hexane-1,2,3,4,5,6-hexol]
Second: CC(C)C(=O)OCC(C)(C)C(O)C(C)C (configuration not stated) [(3-hydroxy-2,2,4-trimethylpentyl) 2-methylpropanoate]
The flash point of the first is higher: 283.00 °C for the first, 120.00 °C for the second.

First: CCCCCCl [1-chloropentane]
Second: CCCCC(CC)COC(=O)/C=C\C(=O)OCC(CC)CCCC (configuration not stated) [bis(2-ethylhexyl) (Z)-but-2-enedioate]
The flash point of the first is lower: 1.00 °C for the first, 185.00 °C for the second.

Compared with `C#CCN1CC(=O)N(COC(=O)C2C(C=C(C)C)C2(C)C)C1=O` (configuration not stated), `C=CC(C)(CCC=C(C)C)OC(C)=O` (configuration not stated) [3,7-dimethylocta-1,6-dien-3-yl acetate] is lower in flash point: 110.00 °C for the first, 94.00 °C for the second.

Going from `CC(C)N(C(=O)SCC(Cl)=CCl)C(C)C` to `COCC(C)O` (configuration not stated) [1-methoxypropan-2-ol], the flash point falls from 96.00 °C to 36.00 °C.

First: O=C(O)CBr [2-bromoacetic acid]
Second: C=C(C)CO [2-methylprop-2-en-1-ol]
The flash point of the first is higher: 113.00 °C for the first, 33.00 °C for the second.

Compared with `C[Si]1(C)O[Si](C)(C)O[Si](C)(C)O[Si](C)(C)O[Si](C)(C)O[Si](C)(C)O1`, `CCOP(OCC)OCC` [triethyl phosphite] is lower in flash point: 91.00 °C for the first, 46.00 °C for the second.

Going from `CN=C=S` [methylimino(sulfanylidene)methane] to `C=CCN=C=S` [3-isothiocyanatoprop-1-ene], the flash point rises from 35.00 °C to 46.00 °C.

First: Cc1ccc(N)cc1 [4-methylaniline]
Second: Cc1ccc(C#N)cc1 [4-methylbenzonitrile]
The flash point of the first is higher: 87.00 °C for the first, 85.00 °C for the second.

Going from `Cc1c(N=C=O)cccc1N=C=O` [1,3-diisocyanato-2-methylbenzene] to `ClC[Si](Cl)(Cl)Cl` [trichloro(chloromethyl)silane], the flash point falls from 132.00 °C to 69.00 °C.

Going from `C=C[Si](Cl)(Cl)Cl` [trichloro(ethenyl)silane] to `C1CCCNCC1` [azepane], the flash point rises from 21.00 °C to 37.00 °C.
